Assay results taken from ChEMBL document CHEMBL1201862, “PubChem BioAssay data set” (2004).
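All cell lines were grown in 96-well plates and treated with compound for 48 hours. GI50: concentration for 50% inhibition of growth.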 Active and inactive are the calls of the source. Cut-off read from the data, not from the text of the source: active = GI50 up to about 1.1 µM and inactive = higher.

Columns and labels:
Test in all cases: NCI-60 cell line screen, 48 h
K562 = tested on: K562
LOX IMVI = tested on: LOX IMVI
DMS-114 = tested on: DMS-114
SW-620 = tested on: SW-620
LXFL 529 = tested on: LXFL 529
DMS-273 = tested on: DMS-273
Malme-3M = tested on: Malme-3M
SK-OV-3 = tested on: SK-OV-3
HL-60 = tested on: HL-60
XF498 = tested on: XF498
HCT-15 = tested on: HCT-15
IGROV-1 = tested on: IGROV-1
RPMI-8226 = tested on: RPMI-8226
A549 = tested on: A549
SN12C = tested on: SN12C
COLO 205 = tested on: COLO 205
SK-MEL-2 = tested on: SK-MEL-2
TK-10 = tested on: TK-10
OVCAR-4 = tested on: OVCAR-4
SK-MEL-5 = tested on: SK-MEL-5
OVCAR-5 = tested on: OVCAR-5
HCC 2998 = tested on: HCC 2998
U-251 = tested on: U-251
CAKI-1 = tested on: CAKI-1
DLD-1 = tested on: DLD-1
CCRF-CEM = tested on: CCRF-CEM
SR = tested on: SR
M14 = tested on: M14
786-0 = tested on: 786-0
UACC-62 = tested on: UACC-62
OVCAR-8 = tested on: OVCAR-8
EKVX = tested on: EKVX
ACHN = tested on: ACHN
MOLT-4 = tested on: MOLT-4
HOP-62 = tested on: HOP-62
KM-20L2 = tested on: KM-20L2
SK-MEL-28 = tested on: SK-MEL-28
SF-268 = tested on: SF-268
KM12 = tested on: KM12
M19-MEL = tested on: M19-MEL
UO-31 = tested on: UO-31
A498 = tested on: A498
OVCAR-3 = tested on: OVCAR-3
HT-29 = tested on: HT-29
NCI-H23 = tested on: NCI-H23
RXF 393 = tested on: RXF 393
SNB-19 = tested on: SNB-19
SF-295 = tested on: SF-295
HCT-116 = tested on: HCT-116
NCI-H522 = tested on: NCI-H522
NCI-H460 = tested on: NCI-H460
UACC-257 = tested on: UACC-257

`C=C(Cl)Cc1c(O)c2c(c(O)c1CC(=C)Cl)C(=O)c1ccccc1C2=O` was tested, and the GI50 (K562) was > 100 µM (inactive), the GI50 (LOX IMVI) was > 100 µM (inactive) and the GI50 (DMS-114) was > 100 µM (inactive). For the same compound, the GI50 (SW-620) was > 100 µM (inactive), the GI50 (LXFL 529) was > 100 µM (inactive) and the GI50 (DMS-273) was > 100 µM (inactive). For the same compound, the GI50 (Malme-3M) was > 100 µM (inactive), the GI50 (SK-OV-3) was > 100 µM (inactive) and the GI50 (HL-60) was > 100 µM (inactive). For the same compound, the GI50 (XF498) was > 100 µM (inactive), the GI50 (HCT-15) was > 100 µM and the GI50 (IGROV-1) was > 100 µM (inactive). The GI50 (RPMI-8226) was > 100 µM (inactive), the GI50 (A549) was > 100 µM (inactive) and the GI50 (SN12C) was > 100 µM (inactive). For the same compound, the GI50 (COLO 205) was > 100 µM (inactive), the GI50 (SK-MEL-2) was > 100 µM (inactive) and the GI50 (TK-10) was > 100 µM (inactive). For the same compound, the GI50 (OVCAR-4) was > 100 µM (inactive), the GI50 (SK-MEL-5) was > 100 µM (inactive) and the GI50 (OVCAR-5) was > 100 µM (inactive). For the same compound, the GI50 (HCC 2998) was > 100 µM (inactive), the GI50 (U-251) was > 100 µM (inactive) and the GI50 (CAKI-1) was > 100 µM (inactive). For the same compound, the GI50 (DLD-1) was > 100 µM (inactive), the GI50 (CCRF-CEM) was > 100 µM (inactive) and the GI50 (SR) was > 100 µM (inactive). For the same compound, the GI50 (M14) was > 100 µM (inactive), the GI50 (786-0) was > 100 µM (inactive) and the GI50 (UACC-62) was > 100 µM (inactive). For the same compound, the GI50 (OVCAR-8) was > 100 µM (inactive), the GI50 (EKVX) was > 100 µM (inactive) and the GI50 (ACHN) was > 100 µM (inactive). For the same compound, the GI50 (MOLT-4) was > 100 µM (inactive), the GI50 (HOP-62) was > 100 µM (inactive) and the GI50 (KM-20L2) was > 100 µM (inactive).
`CCOc1ncnc2ccc(Cl)c(I)c12` was tested, and the GI50 (K562) was 88.7 µM (inactive), the GI50 (LOX IMVI) was 49.4 µM (inactive) and the GI50 (DMS-114) was 45.1 µM (inactive). For the same compound, the GI50 (SK-MEL-28) was > 100 µM (inactive), the GI50 (SW-620) was > 100 µM (inactive) and the GI50 (SF-268) was 31.2 µM (inactive). For the same compound, the GI50 (LXFL 529) was 81.1 µM (inactive), the GI50 (DMS-273) was > 100 µM (inactive) and the GI50 (Malme-3M) was > 100 µM (inactive). For the same compound, the GI50 (SK-OV-3) was 36.4 µM (inactive), the GI50 (HL-60) was 38.8 µM (inactive) and the GI50 (XF498) was 45.4 µM (inactive). For the same compound, the GI50 (HCT-15) was > 100 µM, the GI50 (IGROV-1) was 38.7 µM (inactive) and the GI50 (RPMI-8226) was 29.5 µM (inactive). For the same compound, the GI50 (A549) was 75.7 µM (inactive), the GI50 (KM12) was 91 µM (inactive) and the GI50 (SN12C) was 67.5 µM (inactive). For the same compound, the GI50 (COLO 205) was > 100 µM (inactive), the GI50 (SK-MEL-2) was 53.1 µM (inactive) and the GI50 (M19-MEL) was > 100 µM (inactive). The GI50 (UO-31) was 27.7 µM (inactive), the GI50 (TK-10) was 62.7 µM (inactive) and the GI50 (OVCAR-4) was 56.6 µM (inactive). For the same compound, the GI50 (A498) was 31 µM (inactive), the GI50 (SK-MEL-5) was 59.8 µM (inactive) and the GI50 (OVCAR-5) was > 100 µM (inactive). The GI50 (HCC 2998) was > 100 µM (inactive), the GI50 (OVCAR-3) was > 100 µM (inactive) and the GI50 (U-251) was > 100 µM (inactive). The GI50 (HT-29) was > 100 µM (inactive), the GI50 (NCI-H23) was 79.1 µM (inactive) and the GI50 (CAKI-1) was 22.6 µM (inactive). For the same compound, the GI50 (DLD-1) was 99.1 µM (inactive), the GI50 (CCRF-CEM) was 70.6 µM (inactive) and the GI50 (RXF 393) was 15 µM (inactive). For the same compound, the GI50 (SR) was 47.2 µM (inactive), the GI50 (M14) was 75.2 µM (inactive) and the GI50 (786-0) was 87.9 µM (inactive). For the same compound, the GI50 (SNB-19) was 89.1 µM (inactive), the GI50 (UACC-62) was 46.5 µM (inactive) and the GI50 (OVCAR-8) was > 100 µM (inactive). For the same compound, the GI50 (EKVX) was 11.2 µM (inactive), the GI50 (SF-295) was > 100 µM (inactive) and the GI50 (ACHN) was 33.6 µM (inactive). The GI50 (HCT-116) was 82.2 µM (inactive), the GI50 (NCI-H522) was > 10 µM (inactive) and the GI50 (NCI-H460) was 80.7 µM (inactive). For the same compound, the GI50 (HOP-62) was > 100 µM (inactive), the GI50 (KM-20L2) was > 100 µM (inactive) and the GI50 (UACC-257) was > 100 µM (inactive).
